Earlier results on 1 molecule are cited in patent US20130089611A1, “RASAGILINE CITRAMIDE” (TEVA PHARMACEUTICAL INDUSTRIES, LTD., priority 2011, published 2013).

The conditions of this data set: in vivo.

In the case of `C#CCN[C@@H]1CCc2ccccc21` [rasagiline, R(+)-N-propargyl-1-aminoindan], the absolute bioavailability result is “about 36%”.
